This experiment has as its system mixed solution of 8 types of bacteria. In words: MIC and synergistic index on a mixed solution of 8 types of bacteria, two fold dilution method. The experiment is classed as cell-based. The following applies: 72 h; 30 degrees centigrade, 3 days, Tryptic Soy Broth; read-out: Qa: MIC value on the mixed strain of a single 3-isothiazolone. The method, then: The sterilizing effects of 3-isothiazolone and polyhexamethyleneguanidine phosphate on a mixed solution of 8 types of bacteria (Enterobacter aerogens ATCC 13048, Escherichia coli ATCC 11229, Micrococcus luteus ATCC 9341, Pseudomonas aeruginosa ATCC 15442, Klebsiella pneumoniae, Staphylococcus epidermis ATCC 155, Staphylococcus aureus ATCC 6538, and Bacillus subtilis ATCC 6984) were tested using Tryptic Soy Broth manufactured by Difco Corporation according to the two fold dilution method. The minimum inhibiting concentration of each biocide and mixtures thereof were determined by observation with the naked eye of the degree of muddiness of the lowest concentration in which growth was deteriorated after culturing a culture fluid in which biocides and microorganisms are added at 30 degrees centigrade for 3 days.

These results are taken from patent US8309110B2, “Biocide composition and sterilization method using the same” (priority 1998, dated 2012).

The term MIC denotes the lowest concentration that inhibits growth of the organism.

Take `O=c1ccs[nH]1` [3-isothiazolone]: the MIC turned out to be 18.8 µg/mL.
